Data published in the NIST ThermoML archive (doi:10.1016/j.jct.2013.05.036).
± gives the expanded uncertainty stated by the source.

Conditions: 101.33 kPa, Liquid, Levitation methods

Q: Which results are given for `[Mo]` [molybdenum]?
A: viscosity (2573 K): 6.7 ± 1.4 mPa·s; viscosity (2600 K): 6.6 ± 1.4 mPa·s; viscosity (2650 K): 6.2 ± 1.3 mPa·s; viscosity (2700 K): 5.9 ± 1.2 mPa·s; viscosity (2750 K): 5.7 ± 1.2 mPa·s; viscosity (2800 K): 5.4 ± 1.1 mPa·s; viscosity (2850 K): 5.2 ± 1.1 mPa·s; viscosity (2896 K): 5 ± 1 mPa·s; viscosity (2900 K): 5 ± 1 mPa·s; viscosity (2950 K): 4.8 ± 1 mPa·s; viscosity (3000 K): 4.6 ± 0.9 mPa·s; viscosity (3050 K): 4.5 ± 0.9 mPa·s; viscosity (3100 K): 4.3 ± 0.9 mPa·s; viscosity (3150 K): 4.2 ± 0.8 mPa·s; viscosity (3213 K): 4 ± 0.8 mPa·s

Q: For `[Os]` [osmium], which viscosity (3265 K) is on record?
A: The viscosity was 7.4 ± 1.5 mPa·s.

Q: What about the viscosity (3290 K) of the same compound?
A: The viscosity was 7.2 ± 1.5 mPa·s.

Q: And the viscosity (3306 K)?
A: Its viscosity is 7 ± 1.4 mPa·s.

Q: And the viscosity (3315 K)?
A: The viscosity was 7 ± 1.4 mPa·s.

Q: What about the viscosity (3340 K) of the same compound?
A: Its viscosity is 6.7 ± 1.4 mPa·s.

Q: What about the viscosity (3365 K) of the same compound?
A: The viscosity was 6.5 ± 1.4 mPa·s.

Q: What about the viscosity (3390 K) of the same compound?
A: Its viscosity is 6.3 ± 1.3 mPa·s.

Q: And the viscosity (3415 K)?
A: The viscosity was 6.1 ± 1.3 mPa·s.

Q: What about the viscosity (3440 K) of the same compound?
A: Its viscosity is 6 ± 1.2 mPa·s.

Q: And the viscosity (3465 K)?
A: Its viscosity is 5.8 ± 1.2 mPa·s.

Q: And the viscosity (3490 K)?
A: The viscosity was 5.6 ± 1.2 mPa·s.

Q: What about the viscosity (3515 K) of the same compound?
A: The viscosity was 5.5 ± 1.1 mPa·s.

Q: And the viscosity (3542 K)?
A: Its viscosity is 5.3 ± 1.1 mPa·s.

Q: For `[Re]` [rhenium], which viscosity (3034 K) is on record?
A: The viscosity was 14.9 ± 3 mPa·s.

Q: And the viscosity (3050 K)?
A: Its viscosity is 14.6 ± 3 mPa·s.

Q: And the viscosity (3100 K)?
A: The viscosity was 13.9 ± 2.8 mPa·s.

Q: And the viscosity (3150 K)?
A: Its viscosity is 13.2 ± 2.7 mPa·s.

Q: What about the viscosity (3200 K) of the same compound?
A: Its viscosity is 12.5 ± 2.5 mPa·s.

Q: And the viscosity (3250 K)?
A: Its viscosity is 12 ± 2.4 mPa·s.

Q: What about the viscosity (3300 K) of the same compound?
A: The viscosity was 11.4 ± 2.3 mPa·s.

Q: And the viscosity (3350 K)?
A: Its viscosity is 10.9 ± 2.2 mPa·s.

Q: And the viscosity (3400 K)?
A: The viscosity was 10.4 ± 2.1 mPa·s.

Q: And the viscosity (3450 K)?
A: Its viscosity is 10 ± 2 mPa·s.

Q: And the viscosity (3459 K)?
A: The viscosity was 9.9 ± 2 mPa·s.

Q: And the viscosity (3500 K)?
A: The viscosity was 9.6 ± 1.9 mPa·s.

Q: And the viscosity (3550 K)?
A: Its viscosity is 9.2 ± 1.9 mPa·s.

Q: And the viscosity (3600 K)?
A: The viscosity was 8.8 ± 1.8 mPa·s.

Q: And the viscosity (3650 K)?
A: The viscosity was 8.5 ± 1.7 mPa·s.

Q: What about the viscosity (3675 K) of the same compound?
A: The viscosity was 8.4 ± 1.7 mPa·s.

Q: Which viscosity (2880 K) does the source give for `[Ta]` [tantalum] here?
A: The viscosity was 13.4 ± 2.7 mPa·s.

Q: And the viscosity (2900 K)?
A: Its viscosity is 13.1 ± 2.7 mPa·s.

Q: What about the viscosity (2950 K) of the same compound?
A: The viscosity was 12.4 ± 2.5 mPa·s.

Q: What about the viscosity (3000 K) of the same compound?
A: Its viscosity is 11.7 ± 2.4 mPa·s.

Q: And the viscosity (3050 K)?
A: Its viscosity is 11.1 ± 2.3 mPa·s.

Q: What about the viscosity (3100 K) of the same compound?
A: Its viscosity is 10.6 ± 2.2 mPa·s.

Q: What about the viscosity (3150 K) of the same compound?
A: The viscosity was 10.1 ± 2.1 mPa·s.

Q: And the viscosity (3200 K)?
A: Its viscosity is 9.6 ± 2 mPa·s.

Q: What about the viscosity (3250 K) of the same compound?
A: Its viscosity is 9.2 ± 1.9 mPa·s.

Q: What about the viscosity (3293 K) of the same compound?
A: Its viscosity is 8.9 ± 1.8 mPa·s.

Q: What about the viscosity (3300 K) of the same compound?
A: The viscosity was 8.8 ± 1.8 mPa·s.

Q: What about the viscosity (3350 K) of the same compound?
A: The viscosity was 8.4 ± 1.7 mPa·s.

Q: What about the viscosity (3400 K) of the same compound?
A: Its viscosity is 8.1 ± 1.6 mPa·s.

Q: What about the viscosity (3450 K) of the same compound?
A: Its viscosity is 7.8 ± 1.6 mPa·s.

Q: And the viscosity (3500 K)?
A: The viscosity was 7.5 ± 1.5 mPa·s.

Q: What about the viscosity (3514 K) of the same compound?
A: Its viscosity is 7.4 ± 1.5 mPa·s.

Q: Which viscosity (3155 K) does the source give for `[W]` [tungsten] here?
A: Its viscosity is 16.7 ± 3.5 mPa·s.

Q: And the viscosity (3200 K)?
A: The viscosity was 15.7 ± 3.3 mPa·s.

Q: What about the viscosity (3250 K) of the same compound?
A: The viscosity was 14.6 ± 3 mPa·s.

Q: And the viscosity (3300 K)?
A: The viscosity was 13.7 ± 2.8 mPa·s.

Q: What about the viscosity (3350 K) of the same compound?
A: The viscosity was 12.8 ± 2.6 mPa·s.

Q: What about the viscosity (3400 K) of the same compound?
A: Its viscosity is 12 ± 2.5 mPa·s.

Q: What about the viscosity (3450 K) of the same compound?
A: Its viscosity is 11.3 ± 2.3 mPa·s.

Q: And the viscosity (3500 K)?
A: The viscosity was 10.6 ± 2.2 mPa·s.

Q: What about the viscosity (3550 K) of the same compound?
A: The viscosity was 10 ± 2.1 mPa·s.

Q: And the viscosity (3600 K)?
A: Its viscosity is 9.4 ± 1.9 mPa·s.

Q: And the viscosity (3634 K)?
A: The viscosity was 9.1 ± 1.9 mPa·s.

Q: What about the viscosity (3695 K) of the same compound?
A: The viscosity was 8.5 ± 1.7 mPa·s.
